Measurements as given in patent EP0461043A2, “Enantiomer separation by transesterification” (SEPRACOR, INC., priority 1990, dated 1991).
Structures can show the parent of a compound that is named as a salt.

Assays:
[1] = Water solubility; assay type: physicochemical; details: for water solubility: charged water-soluble reactant esters (salts), values given in M; for solubility in water: esters, values given in mM
[2] = L form relative to D form; cited from earlier work

| SMILES | water solubility [1] [mM] | solubility in water [1] | also measured |
| --- | --- | --- | --- |
| COc1ccc2cc(C(C)C(=O)OCC[N+](C)(C)C)ccc2c1 (racemic) [choline ester of 2-(6-methoxy-2-naphthyl) propanoic acid] | 1610 |  |  |
| CC(C)Cc1ccc(C(C)C(=O)O)cc1 (stereo not drawn) [Ibuprofen, 2-(p-isobutylphenyl) propanoic acid, reference compound] |  |  | water solubility at room temperature ([1]; acid forms, room temperature, varies with pH): single digit mM range |
| CC(C)NCC(O)COc1cccc2ccccc12 (stereo not drawn) [L form of the beta blocker propranolol, propranolol] |  |  | times more potent than the D form [2]: 100 times |
| COCCOC(=O)C(C)c1ccc(CC(C)C)cc1 (stereo not drawn) [methoxy-ethyl ester of Ibuprofen] |  | approximately 0.18 mM |  |
| CC(C)Cc1ccc(C(C)C(=O)OCC[N+](C)(C)C)cc1 (stereo not drawn) [methyl sulfate salt of N,N,N-trimethylammonium ethyl ester of Ibuprofen] | 2180 |  |  |
| CCCCCCCCOC(=O)C(C)Cl (stereo not drawn) [octyl ester of 2-chloropropanoic acid] |  | about 1.2 mM |  |
